Measured values: ChEMBL document CHEMBL1141036, “2-Alkyl-3-(1,2,3,6-tetrahydropyridin-4-yl)-1H-indoles as novel 5-HT6 receptor agonists” (Bioorg Med Chem Lett, 2005)

What was measured:
[1] = Concentration to stimulate the cAMP production in BHK cells; type: functional, cell-based; conditions: Homo sapiens
[2] = target: T1, 5-hydroxytryptamine receptor 6 (Homo sapiens, UniProt P50406); assay: Displacement of [3H]LSD binding to cloned human 5-hydroxytryptamine 6 receptor expressed in HEK cells; type: cell-based, HEK293
T1 sequence (P50406 whole entry): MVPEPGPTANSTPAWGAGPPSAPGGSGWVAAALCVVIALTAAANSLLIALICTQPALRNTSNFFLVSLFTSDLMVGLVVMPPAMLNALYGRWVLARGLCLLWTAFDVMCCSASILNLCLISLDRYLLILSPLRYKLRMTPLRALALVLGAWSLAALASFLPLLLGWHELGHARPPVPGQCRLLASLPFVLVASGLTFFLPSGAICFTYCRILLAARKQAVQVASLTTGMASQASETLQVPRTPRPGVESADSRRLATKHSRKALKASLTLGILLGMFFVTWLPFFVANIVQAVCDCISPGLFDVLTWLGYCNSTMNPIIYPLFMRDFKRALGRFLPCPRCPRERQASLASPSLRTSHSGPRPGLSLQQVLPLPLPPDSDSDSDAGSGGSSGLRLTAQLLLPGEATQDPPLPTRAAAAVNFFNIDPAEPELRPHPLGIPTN

[3] = target: T1, 5-hydroxytryptamine receptor 6; assay: Intrinsic activity (IA) at the 5-HT6 receptor determined by measuring their cAMP production in BHK cells and compared to the effect elicited by 5-HT; type: functional, cell-based; conditions: Mesocricetus auratus
[4] = target: T1, 5-hydroxytryptamine receptor 6; assay: Inhibitory activity against 5-hydroxytryptamine 6 receptor in human
[5] = target: T2, 5-hydroxytryptamine receptor 1A (Rattus norvegicus, UniProt P19327); assay: Inhibitory activity against 5-hydroxytryptamine 1A receptor in rat
T2 sequence (P19327 whole entry): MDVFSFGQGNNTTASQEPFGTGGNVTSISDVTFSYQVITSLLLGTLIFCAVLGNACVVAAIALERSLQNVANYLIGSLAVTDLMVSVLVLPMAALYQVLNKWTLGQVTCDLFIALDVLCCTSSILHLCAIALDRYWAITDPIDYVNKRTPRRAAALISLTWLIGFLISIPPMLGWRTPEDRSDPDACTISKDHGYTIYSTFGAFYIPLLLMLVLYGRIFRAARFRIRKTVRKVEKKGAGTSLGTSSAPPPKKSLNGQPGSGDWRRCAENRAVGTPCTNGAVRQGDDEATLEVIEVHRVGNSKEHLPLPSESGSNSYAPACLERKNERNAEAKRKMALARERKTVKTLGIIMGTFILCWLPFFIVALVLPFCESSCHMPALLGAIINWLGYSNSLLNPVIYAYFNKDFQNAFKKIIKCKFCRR

[6] = target: 5-hydroxytryptamine receptor 7 (Homo sapiens, UniProt P34969); assay: Inhibitory activity against 5-hydroxytryptamine 7 receptor in human
Chain of 5-hydroxytryptamine receptor 7 (P34969 whole entry): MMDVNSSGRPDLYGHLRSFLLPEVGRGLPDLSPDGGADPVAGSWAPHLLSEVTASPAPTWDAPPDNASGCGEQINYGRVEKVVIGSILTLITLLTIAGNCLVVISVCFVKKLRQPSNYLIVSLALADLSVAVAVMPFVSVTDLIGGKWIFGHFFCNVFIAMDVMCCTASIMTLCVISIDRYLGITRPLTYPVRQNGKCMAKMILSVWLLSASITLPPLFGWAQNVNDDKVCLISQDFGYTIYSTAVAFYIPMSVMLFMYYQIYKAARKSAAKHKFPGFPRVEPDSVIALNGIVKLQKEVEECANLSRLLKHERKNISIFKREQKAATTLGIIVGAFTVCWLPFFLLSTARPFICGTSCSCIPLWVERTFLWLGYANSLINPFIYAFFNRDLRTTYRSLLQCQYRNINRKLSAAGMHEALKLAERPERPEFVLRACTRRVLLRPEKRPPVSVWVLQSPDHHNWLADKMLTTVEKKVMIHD

[7] = target: T1, 5-hydroxytryptamine receptor 6; assay: Displacement of [3H]LSD binding to cloned human 5-hydroxytryptamine 6 receptor stably expressed in HEK cells; type: cell-based, HEK293
[8] = target: 5-hydroxytryptamine receptor 2A (Homo sapiens, UniProt P28223); assay: Inhibitory activity against 5-hydroxytryptamine 2A receptor in human
Chain of 5-hydroxytryptamine receptor 2A (P28223 whole entry): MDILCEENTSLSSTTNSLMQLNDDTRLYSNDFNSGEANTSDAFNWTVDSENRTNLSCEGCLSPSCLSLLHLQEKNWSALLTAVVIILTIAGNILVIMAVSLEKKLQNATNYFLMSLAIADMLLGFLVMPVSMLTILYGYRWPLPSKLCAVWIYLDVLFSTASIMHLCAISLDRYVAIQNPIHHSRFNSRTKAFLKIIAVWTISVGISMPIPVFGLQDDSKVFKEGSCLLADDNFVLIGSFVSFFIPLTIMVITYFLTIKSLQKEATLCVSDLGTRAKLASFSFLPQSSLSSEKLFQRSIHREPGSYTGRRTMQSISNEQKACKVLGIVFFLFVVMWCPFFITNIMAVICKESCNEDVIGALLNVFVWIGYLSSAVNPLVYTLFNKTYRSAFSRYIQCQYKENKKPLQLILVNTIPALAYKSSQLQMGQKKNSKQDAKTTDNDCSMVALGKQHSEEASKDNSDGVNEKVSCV

[9] = target: 5-hydroxytryptamine receptor 1B (Rattus norvegicus, UniProt P28564); assay: Inhibitory activity against 5-hydroxytryptamine 1B receptor in rat
Chain of 5-hydroxytryptamine receptor 1B (P28564 whole entry): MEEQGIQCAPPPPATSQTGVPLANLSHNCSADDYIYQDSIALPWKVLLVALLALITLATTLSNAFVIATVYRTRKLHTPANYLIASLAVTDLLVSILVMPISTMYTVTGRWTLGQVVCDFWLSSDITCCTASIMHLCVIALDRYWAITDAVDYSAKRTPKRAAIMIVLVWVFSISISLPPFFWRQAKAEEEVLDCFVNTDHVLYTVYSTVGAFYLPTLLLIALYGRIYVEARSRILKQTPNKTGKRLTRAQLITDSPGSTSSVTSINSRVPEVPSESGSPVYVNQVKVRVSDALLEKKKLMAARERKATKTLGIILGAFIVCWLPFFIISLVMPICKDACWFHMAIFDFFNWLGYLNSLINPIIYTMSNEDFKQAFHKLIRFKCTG

[10] = target: 5-hydroxytryptamine receptor 4 (Cavia porcellus, UniProt O70528); assay: Inhibitory activity against 5-hydroxytryptamine 4 receptor in guinea pig
Chain of 5-hydroxytryptamine receptor 4 (O70528 whole entry): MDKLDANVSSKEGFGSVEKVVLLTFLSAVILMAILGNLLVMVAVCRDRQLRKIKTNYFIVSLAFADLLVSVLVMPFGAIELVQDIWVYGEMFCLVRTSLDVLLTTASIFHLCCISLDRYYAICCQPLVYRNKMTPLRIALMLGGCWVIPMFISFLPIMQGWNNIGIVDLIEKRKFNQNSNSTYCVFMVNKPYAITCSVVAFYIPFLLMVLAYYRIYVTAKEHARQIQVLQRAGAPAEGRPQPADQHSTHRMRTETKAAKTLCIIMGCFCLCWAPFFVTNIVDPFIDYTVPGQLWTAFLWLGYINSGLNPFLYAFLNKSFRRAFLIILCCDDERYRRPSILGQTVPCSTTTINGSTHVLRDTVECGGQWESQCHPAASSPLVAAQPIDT

[11] = target: 5-hydroxytryptamine receptor 3A (Mus musculus) (UniProt P23979); assay: Inhibitory activity against 5-hydroxytryptamine 3 receptor expressed in NG 108 cells
Chain of 5-hydroxytryptamine receptor 3A (Mus musculus) (P23979 whole entry, looked up): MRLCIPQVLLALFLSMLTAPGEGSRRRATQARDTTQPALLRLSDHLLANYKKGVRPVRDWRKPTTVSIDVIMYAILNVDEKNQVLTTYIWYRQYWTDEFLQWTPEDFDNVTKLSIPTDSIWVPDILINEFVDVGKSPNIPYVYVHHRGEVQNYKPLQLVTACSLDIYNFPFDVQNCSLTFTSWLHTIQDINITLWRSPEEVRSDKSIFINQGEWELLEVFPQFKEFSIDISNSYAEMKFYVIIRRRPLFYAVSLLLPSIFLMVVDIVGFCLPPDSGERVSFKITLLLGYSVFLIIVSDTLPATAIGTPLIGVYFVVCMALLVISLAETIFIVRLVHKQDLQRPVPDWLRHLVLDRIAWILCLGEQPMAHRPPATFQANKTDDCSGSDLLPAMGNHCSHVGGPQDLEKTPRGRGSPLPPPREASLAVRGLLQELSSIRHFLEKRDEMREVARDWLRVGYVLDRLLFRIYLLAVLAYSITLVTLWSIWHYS

[12] = target: T3, 5-hydroxytryptamine receptor 2C (Homo sapiens, UniProt P28335); assay: Inhibitory activity against 5-hydroxytryptamine 2C receptor in human
T3 sequence (P28335 whole entry): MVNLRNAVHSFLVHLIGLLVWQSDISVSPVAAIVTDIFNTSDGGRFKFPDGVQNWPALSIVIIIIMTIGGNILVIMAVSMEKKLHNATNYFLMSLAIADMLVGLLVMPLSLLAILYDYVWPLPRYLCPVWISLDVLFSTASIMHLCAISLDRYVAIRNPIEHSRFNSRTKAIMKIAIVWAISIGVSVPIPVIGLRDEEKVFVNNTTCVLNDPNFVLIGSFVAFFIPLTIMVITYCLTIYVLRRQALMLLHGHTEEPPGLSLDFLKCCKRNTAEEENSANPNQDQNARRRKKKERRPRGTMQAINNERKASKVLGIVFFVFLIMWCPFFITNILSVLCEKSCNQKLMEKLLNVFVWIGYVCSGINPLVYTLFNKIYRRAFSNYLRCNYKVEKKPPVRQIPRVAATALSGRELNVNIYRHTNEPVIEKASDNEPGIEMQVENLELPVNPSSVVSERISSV

[13] = target: T1, 5-hydroxytryptamine receptor 6; assay: Displacement of [3H]LSD binding to cloned h5-HT6 receptors stably expressed in HEK cells; type: cell-based, HEK293

SMILES	EC50 [1]	IC50 [2]	IA [3]	further results
Cc1[nH]c2ccc(Cl)cc2c1C1=CCN(C)CC1	0.0029 µM	0.01 µM	152%	–
CCCN1CC=C(c2c(C)[nH]c3ccc(Cl)cc23)CC1	–	0.06 µM	–	–
CCc1[nH]c2ccc(OC)cc2c1CCN(C)C	0.71 µM	–	113%	IC50 [4]: 0.085 µM; IC50 [5]: > 1 µM; IC50 [6]: 1.5 µM; IC50 [7]: 0.085 µM; IC50 [8]: 0.62 µM; IC50 [9]: > 1 µM; IC50 [10]: 0.044 µM; IC50 [11]: > 1 µM
CCN1CC=C(c2c(C)[nH]c3ccc(Cl)cc23)CC1	–	0.03 µM	–	–
COc1ccc2[nH]c(C)c(C3=CCNCC3)c2c1	0.0058 µM	0.08 µM	100%	IC50 [4]: 0.08 µM; IC50 [5]: 0.43 µM; IC50 [6]: 9.8 µM; IC50 [12]: > 1 µM; IC50 [8]: > 1 µM; IC50 [9]: 0.31 µM; IC50 [10]: 9.8 µM; IC50 [11]: > 1 µM
Cc1[nH]c2ccc(Cl)cc2c1C1=CC2CCC(C1)N2C (stereo not given)	10 µM	0.04 µM	75%	–
CCc1[nH]c2ccc(OC)cc2c1C1CCNCC1	–	–	–	IC50 [13]: 0.3 µM
Cc1[nH]c2ccc(Cl)cc2c1C1=CCNCC1	0.001 µM	–	92%	IC50 [5]: 0.66 µM; IC50 [6]: 3 µM; IC50 [12]: 0.45 µM; IC50 [8]: 0.24 µM; IC50 [9]: 0.18 µM; IC50 [10]: 0.62 µM; IC50 [11]: 0.034 µM
CCc1[nH]c2ccc(Cl)cc2c1C1=CCNCC1	–	0.03 µM	–	–
Cc1[nH]c2ccc(Cl)cc2c1CCN(C)C	0.016 µM	0.04 µM	53%	–
CCc1[nH]c2ccc(Cl)cc2c1C1=CCN(CC)CC1	–	0.07 µM	–	–
C1=C(c2c(-c3ccccc3)[nH]c3ccccc23)CCNC1	–	0.002 µM	–	–
CC(C)c1[nH]c2ccc(Cl)cc2c1C1=CCNCC1	–	0.1 µM	–	–
CCCc1[nH]c2ccc(Cl)cc2c1C1=CCNCC1	–	0.04 µM	–	–
Cc1[nH]c2ccc(Cl)cc2c1C1=CCN(Cc2ccccc2)CC1	–	0.6 µM	–	–
COc1ccc2[nH]cc(C3=CCNCC3)c2c1 [RU-24969]	0.2 µM	0.079 µM	55%	–
CCc1[nH]c2ccc(OC)cc2c1C1=CCNCC1	0.0079 µM	–	100%	IC50 [13]: 0.09 µM
CCCCN1CC=C(c2c(C)[nH]c3ccc(Cl)cc23)CC1	–	0.05 µM	–	–
